Values of other authors, collected in patent publication US20180028686A1 (priority 2014, published 2018).

Tested on: RVFV

NC(=O)c1ncn([C@@H]2O[C@H](CO)[C@@H](O)[C@H]2O)n1 [Ribavirin, ribavirin]
IC50 values: low micromolar range
